Reference: patent publication US4684647A, “Anti-bacterial pyrido-benzothiazine derivative and pharmaceutical composition therefor” (priority 1984, dated 1987)
In brackets after ≈: the same amount, converted by molar mass.

How the values were obtained:
[1] = test system: bacteria; assay: antibacterial activity in vitro, overall; assay type: cell-based; conditions: in vitro, Table 1
Procedure: (§1) The antibacterial activity (minimum inhibiting concentration, MIC) of the compounds according to the invention has been determined in agar, by adding the compound under evaluation at concentrations of from 0.1 to 100 meg/ml by means of a "multipoint inoculator" (Denley Techn. Ltd., England); the medium used was Isosensitest agar (Oxoid); the bacterial inoculate was 10^4 colony forming unity (CFU) per inoculation point. The reading of the results was done after 24 hour-incubation in thermostat at 37° C.
(§2) The MIC was defined as the lowest concentration of chemotherapeutic agent still capable of totally inhibiting the growth of bacteria, as detected from a lack of colony development in the inoculation point.
(§3) The microorganisms used for evaluating the activity of the specific compounds have been: Escherichia coli, Klebsiella P., Enterobacter, Serratia, Citrobacter, Proteus (+), Salmonella, Pseudomonas, Staphylococcus. All the compounds according to the present invention are provided with antibacterial activity against one or more microorganism(s) among those above mentioned. Some of such compounds are absorbed after having been administered orally to the animals, and are particularly useful as disinfectants of the urinary tract in that they are excreted in a high percentage (50-70% over 24 hours after the administration of 50 mg/kg per os) as such, and in metabolic active form, through the urine.

[2] = test system: Proteus Morgani (indole +); assay: MIC in agar, Proteus Morgani (indole +); assay type: cell-based; conditions: Isosensitest agar, 10^4 CFU, 24 h, 37° C.; read-out: MIC, D = Proteus Morgani (indole +)
Procedure: as §1, §2, §3
D = Proteus Morgani (indole +)

[3] = preliminary pharmacokinetic tests in dogs, oral; assay type: in vivo; conditions: dog, 20 mg/kg per os
From the text: Preliminary tests performed in dogs with the compound (h) have given still better results than the tests performed in rats.

[4] = test system: Staphylococcus aureus; assay: MIC in agar, Staphylococcus aureus; assay type: cell-based; conditions: Isosensitest agar, 10^4 CFU, 24 h, 37° C.
Procedure: as §1, §2, §3

[5] = test system: bacteria; assay: antibacterial characteristics tested in vivo
[6] = test system: Escherichia coli (981); assay: MIC in agar, Escherichia coli (981); assay type: cell-based; conditions: Isosensitest agar, 10^4 CFU, 24 h, 37° C.
Procedure: as §1, §2, §3
A = Escherichia coli (981)

[7] = test system: Enterobacter; assay: MIC in agar, Enterobacter; assay type: cell-based; conditions: Isosensitest agar, 10^4 CFU, 24 h, 37° C., read-out: MIC, F = Enterobacter
Procedure: as §1, §2, §3

[8] = in vivo; conditions: rat, po
Procedure: In Table 4 the percentage of urinary excretion of compound (h) is reported, as measured in the 24 hours successive to oral administration of the same to rats.
Each value is the average of three tested rats.
The tests have been performed in comparison with Ofloxacin, a well known antibacterial compound. The amount of excreted product has been determined with microbiological analysis, by using Klebsiella Pneumoniae as the testing microorganism.

[9] = test system: Citrobacter; assay: MIC in agar, Citrobacter; assay type: cell-based; conditions: Isosensitest agar, 10^4 CFU, 24 h, 37° C., read-out: MIC, G = Citrobacter
Procedure: as §1, §2, §3

[10] = test system: Pseudomonas aeruginosa; assay: MIC in agar, Pseudomonas aeruginosa; assay type: cell-based; conditions: Isosensitest agar, 10^4 CFU, 24 h, 37° C., read-out: MIC, B = Pseudomonas aeruginosa
Procedure: as §1, §2, §3
B = P udomonas aeruginosa

[11] = tissue levels by HPLC after oral administration to rats; assay type: in vivo; conditions: rat; for concentration at 0.5 h / concentration at 1 h / concentration at 2 h / concentration at 4 h / concentration at 8 h / concentration at 15 h: 50 mg/kg oral; for Cmax: po
[12] = test system: Klebsiella pneumoniae; assay: MIC in agar, Klebsiella pneumoniae; assay type: cell-based; conditions: Isosensitest agar, 10^4 CFU, 24 h, 37° C., read-out: MIC, E = Klebsiella pneumoniae
Procedure: as §1, §2, §3
E = Klebsiella pneumoniae

[13] = plasma levels by HPLC after intraperitoneal and oral administration to rats; assay type: in vivo; conditions: rat; for concentration at 0.5 h: 0.50 h; for concentration at 0.5 h / concentration at 1 h / concentration at 2 h / concentration at 4 h / concentration at 8 h / concentration at 15 h: read-out: Plasma level
Procedure: We give hereinafter in Table 2 the haematic levels of compound (h) as measured in plasma by HPLC. Each value is the average of three tested rats.
More precisely in FIG. 1 the plasma levels in rats versus the time, are reported, after i.p. administration of 10 mg/kg and 25 mg/kg of compound (h), while in FIG. 2 the plasma levels are reported of compound (h) in rats, versus the time, after oral administration of 25, 50 and 100 mg/kg of said compound.

[14] = heart, read-out: Tissue level, heart
[15] = kidney, read-out: Tissue level, kidney
[16] = liver, read-out: Tissue level, liver
[17] = plasma, read-out: Tissue levels table, plasma

SMILES: CN1CCN(c2c(F)cc3c(=O)c(C(=O)O)cn4c3c2SCC4)CC1 [Compound (h), 9-Fluoro-10[N-(4'-methyl)-piperazinyl]-7-oxo-2,3-dihydro-7H-pyrido[1,2,3 de][1,4]benzothiazine-6-carboxylic acid]
- anti-bacterial activity in vitro [1]: very good and comparable anti-bacterial activity
- MIC [2]: 1.56 µg/mL (≈ 4.29 µM)
- plasma levels compared with rats [3]: sharply higher plasma levels
- half-life ([3]; plasma, po): 24 h
- Cmax ([3]; plasma, po, read-out: peak plasma level): 8000 ng/mL
- MIC [4]: 0.78 µg/mL (≈ 2.15 µM)
- in vivo antibacterial characteristics [5]: systemic antibacterial compound having long-lasting activity
- MIC [6]: 0.78 µg/mL (≈ 2.15 µM)
- MIC [7]: < 0.39 µg/mL
- dose excreted at 24 h ([8]; 20 mg/kg): 77.3 ± 6.81%
- dose excreted at 24 h ([8]; 50 mg/kg): 73 ± 4.58%
- MIC [9]: 1.56 µg/mL (≈ 4.29 µM)
- MIC [10]: > 50 µg/mL
- concentration at 0.5 h [11, 14]: 20000 ng/mL
- concentration at 1 h [11, 14]: 31400 ng/mL
- concentration at 2 h [11, 14]: 21000 ng/mL
- concentration at 4 h [11, 14]: 18100 ng/mL
- concentration at 8 h [11, 14]: 9930 ng/mL
- concentration at 15 h [11, 14]: 5350 ng/mL
- concentration at 0.5 h [11, 15]: 32600 ng/mL
- concentration at 1 h [11, 15]: 61200 ng/mL
- concentration at 2 h [11, 15]: 50600 ng/mL
- concentration at 4 h [11, 15]: 42400 ng/mL
- concentration at 8 h [11, 15]: 17800 ng/mL
- concentration at 15 h [11, 15]: 7950 ng/mL
- concentration at 0.5 h [11, 16]: 63500 ng/mL
- concentration at 1 h [11, 16]: 80400 ng/mL
- concentration at 2 h [11, 16]: 58100 ng/mL
- concentration at 4 h [11, 16]: 34100 ng/mL
- concentration at 8 h [11, 16]: 21600 ng/mL
- concentration at 15 h [11, 16]: 11300 ng/mL
- concentration at 0.5 h [11, 17]: 8750 ng/mL
- concentration at 1 h [11, 17]: 10100 ng/mL
- concentration at 2 h [11, 17]: 9950 ng/mL
- concentration at 4 h [11, 17]: 6370 ng/mL
- concentration at 8 h [11, 17]: 4950 ng/mL
- concentration at 15 h [11, 17]: 4290 ng/mL
- Cmax ([11]; heart, read-out: mean tissue level at the moment of peak, heart): 31400 ng/mL
- Cmax ([11]; liver, read-out: mean tissue level at the moment of peak, liver (first of two values printed for liver)): 61200 ng/mL
- Cmax ([11]; liver, read-out: mean tissue level at the moment of peak, liver (second of two values printed for liver)): 80400 ng/mL
- presence in brain ([11]; oral): No presence
- Kp ([11]; oral, various organs, read-out: ratio of organ concentration with respect to the concentration in plasma): > 3
- Cmax ([11]; plasma, read-out: mean level at the moment of peak, plasma): 10100 ng/mL
- MIC [12]: < 0.39 µg/mL
- concentration at 0.5 h ([13]; plasma, ip, 10 mg/kg i.p.): 2700 ng/mL
- concentration at 1 h ([13]; plasma, ip, 10 mg/kg i.p.): 2530 ng/mL
- concentration at 2 h ([13]; plasma, ip, 10 mg/kg i.p.): 2170 ng/mL
- concentration at 4 h ([13]; plasma, ip, 10 mg/kg i.p.): 1830 ng/mL
- concentration at 8 h ([13]; plasma, ip, 10 mg/kg i.p.): 1630 ng/mL
- concentration at 0.5 h ([13]; plasma, ip, 25 mg/kg i.p.): 8350 ng/mL
- concentration at 1 h ([13]; plasma, ip, 25 mg/kg i.p.): 6290 ng/mL
- concentration at 2 h ([13]; plasma, ip, 25 mg/kg i.p.): 6440 ng/mL
- concentration at 4 h ([13]; plasma, ip, 25 mg/kg i.p.): 5010 ng/mL
- concentration at 8 h ([13]; plasma, ip, 25 mg/kg i.p.): 3720 ng/mL
- concentration at 0.5 h ([13]; plasma, po, 25 mg/kg os): 5330 ng/mL
- concentration at 1 h ([13]; plasma, po, 25 mg/kg os): 7300 ng/mL
- concentration at 2 h ([13]; plasma, po, 25 mg/kg os): 5670 ng/mL
- concentration at 4 h ([13]; plasma, po, 25 mg/kg os): 3600 ng/mL
- concentration at 8 h ([13]; plasma, po, 25 mg/kg os): 3270 ng/mL
- concentration at 15 h ([13]; plasma, po, 25 mg/kg os): 2730 ng/mL
- concentration at 0.5 h ([13]; plasma, po, 50 mg/kg os): 8750 ng/mL
- concentration at 1 h ([13]; plasma, po, 50 mg/kg os): 10100 ng/mL
- concentration at 2 h ([13]; plasma, po, 50 mg/kg os): 9950 ng/mL
- concentration at 4 h ([13]; plasma, po, 50 mg/kg os): 6370 ng/mL
- concentration at 8 h ([13]; plasma, po, 50 mg/kg os): 4950 ng/mL
- concentration at 15 h ([13]; plasma, po, 50 mg/kg os): 4290 ng/mL
- concentration at 0.5 h ([13]; plasma, po, 100 mg/kg os): 12500 ng/mL
- concentration at 1 h ([13]; plasma, po, 100 mg/kg os): 20600 ng/mL
- concentration at 2 h ([13]; plasma, po, 100 mg/kg os): 22200 ng/mL
- concentration at 4 h ([13]; plasma, po, 100 mg/kg os): 15900 ng/mL
- concentration at 8 h ([13]; plasma, po, 100 mg/kg os): 13000 ng/mL
- concentration at 15 h ([13]; plasma, po, 100 mg/kg os): 6220 ng/mL
- half-life ([13]; plasma, deduced from Table 2, read-out: half-life time (converted)): 10 h
- absorption per os and i.p. [13]: quickly absorbed
- plasma levels induced [13]: high and long-lasting levels both in the plasma and in the various organs
